The numbers were not newly measured in US20230243814A1, “CHEMICAL CLAS[…] AND METHOD FOR PLANTS” (priority 2020, published 2023), which cites them from elsewhere.

Read-outs that look alike come from different tables or passages of the source.

The conditions of data set [1]: relative magnitude of the activity in words.
For data set [2] the following is noted: relative magnitude of the activity in words. The source holds these as a separate data set.
The target of data set [3] is AChE (acetylcholinesterase) (Homo sapiens, UniProt P22303). As to conditions: relative magnitude of the activity in words.
The conditions of data set [4]: relative magnitude of the activity in words. The source holds these as a separate data set.
The conditions of data set [5]: relative magnitude of the activity in words. The source holds these as a separate data set.
Data set [6] deals with brain wave (EEG) activity. To be noted: for alpha wave activity (EEG) / beta wave activity (EEG) / beta and other absolute wave activity (EEG): inhalation; for alpha wave boost: focus / beta wave boost: creativity: relative magnitude in words.
For data set [7] the following is noted: relative magnitude of the activity in words. This is another data set of the same source.
The conditions of data set [8]: relative magnitude of the activity in words. This is another data set of the same source.
For data set [9] the following is noted: relative magnitude of the activity in words. This is another data set of the same source.
The subject of the next data set is GABA A. As to conditions: relative magnitude of the activity in words.
For alpha wave activity (EEG) in this document: test concentration or dose not given here.
For beta and other absolute wave activity (EEG) in this document: test concentration or dose not given here.
For beta wave activity (EEG) in this document: test concentration or dose not given here.

Sequence of AChE (acetylcholinesterase) (P22303 32-614, species assumed): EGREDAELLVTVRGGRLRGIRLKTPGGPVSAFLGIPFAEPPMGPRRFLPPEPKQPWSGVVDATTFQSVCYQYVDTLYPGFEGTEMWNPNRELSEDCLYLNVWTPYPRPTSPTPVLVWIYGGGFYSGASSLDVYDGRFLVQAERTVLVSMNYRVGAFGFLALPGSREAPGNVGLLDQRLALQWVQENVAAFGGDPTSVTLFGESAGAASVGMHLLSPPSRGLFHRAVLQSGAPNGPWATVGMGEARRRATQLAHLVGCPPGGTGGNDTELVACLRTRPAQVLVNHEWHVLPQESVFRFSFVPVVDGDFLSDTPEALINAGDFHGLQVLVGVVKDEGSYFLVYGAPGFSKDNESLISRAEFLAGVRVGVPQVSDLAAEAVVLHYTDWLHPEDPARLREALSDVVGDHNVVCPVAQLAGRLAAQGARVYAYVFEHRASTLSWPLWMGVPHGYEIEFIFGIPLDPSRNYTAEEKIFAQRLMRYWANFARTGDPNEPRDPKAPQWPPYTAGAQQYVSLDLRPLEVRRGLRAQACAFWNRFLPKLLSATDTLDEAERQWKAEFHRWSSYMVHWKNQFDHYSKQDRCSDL

For `CC1=CC[C@@H](C(C)(C)O)CC1` [alpha terpineol], the sedative entry in data set [1] is “moderate”. Moreover, the muscle relaxant entry in [2] is “very strong”. Besides, the AChEl result in data set [3] was “no notable”. The antinociceptive pain blocker result in data set [4] is on record as “very strong”. Also, the analgesic pain relief entry in [5] was “very strong”.
`CC1=CCC(=C(C)C)CC1` [terpinolene]: the entries for the “alpha wave activity (EEG)” value in [6] (all subjects), in data set [6] (men) and in data set [6] (women) were “increase relative fast alpha wave activity”, “no increase in alpha wave activity” and “increased absolute fast alpha wave activity”, respectively. The “beta wave activity (EEG)” value in data set [6] (all subjects) is listed as “decrease mid beta wave activity”. In addition, the “beta and other absolute wave activity (EEG)” value in [6] (men) is “decrease in relative mid beta wave activity”. For the same compound, the “alpha wave boost: focus” value in [6] (women only) was “very strong”. For the same compound, the sedative result in data set [1] is “weak”. In addition, the muscle relaxant entry in [2] is “moderate”. Besides, in data set [3], the AChEl result is listed as “no notable”. The antinociceptive pain blocker result in data set [4] is given as “no notable”. Moreover, the analgesic pain relief entry in data set [5] is “no notable”.
Consider `C=C/C(C)=C/C/C=C(\C)CCC=C(C)C` [alpha farnesene], for which, in data set [4], the antinociceptive pain blocker result was “no notable”. Further, the analgesic pain relief result in [5] is reported as “no notable”.
Regarding `C[C@H]1CC[C@@H](C(C)(C)O)CC2=C1CC[C@@H]2C` [guiaol], the sedative entry in data set [1] is given as “no notable”. Also, the AChEl entry in data set [3] is recorded as “no notable”. Moreover, the antinociceptive pain blocker result in data set [4] was “no notable”.
Take (+) alpha pinene: in data set [6] (men), the “alpha wave activity (EEG)” value is “no impact on alpha waves”; the “beta and other absolute wave activity (EEG)” value is “significant decreases in absolute waves such as theta, beta, low beta and high beta”. In addition, in data set [6] (women), the “alpha wave activity (EEG)” value is listed as “significantly (P<0.05) increased”; the “beta wave activity (EEG)” value is “absolute beta wave and absolute high beta wave activity significantly (P<0.05) increased”.
Turning to `C=CC(=C)CCC=C(C)C` [beta myrcene], the sedative result in data set [1] was “weak”. Also, in data set [2], the muscle relaxant result is reported as “moderate”. Further, the AChEl result in [3] is reported as “no notable”. Also, the antinociceptive pain blocker entry in data set [4] is listed as “no notable”. The analgesic pain relief entry in data set [5] is “moderate”.
As to `CC(C)=CCC[C@](C)(O)[C@@H]1CC=C(C)CC1` [a bisabolol], in data set [1], the sedative entry is reported as “no notable”. Also, in data set [2], the muscle relaxant entry is given as “very strong”. The AChEl result in data set [3] is on record as “no notable”. The antinociceptive pain blocker result in data set [4] was “very strong”. Also, the analgesic pain relief entry in data set [5] was “no notable”.
With (+) beta pinene, in [6] (men), the “alpha wave activity (EEG)” value is on record as “no impact on alpha waves”; the “beta and other absolute wave activity (EEG)” value was “no significant changes in the absolute waves”. Further, in data set [6] (women), the “alpha wave activity (EEG)” value was “significantly increased” and the “beta wave activity (EEG)” value was “significantly increased”.
For `C=CC(=C)CC/C=C(\C)CCC=C(C)C` [beta farnesene], the antinociceptive pain blocker entry in data set [4] was “no notable”. Also, the analgesic pain relief result in [5] is given as “no notable”.
Turning to `C=C1CCC2CC1C2(C)C` (stereo not drawn) [beta pinene], the anti depressant result in [7] was “moderate”. The “beta wave boost: creativity” value in data set [6] (women only) is “very strong”. Moreover, in data set [1], the sedative result was “moderate”. Further, the AChEl result in data set [3] is given as “no notable”. Further, in data set [4], the antinociceptive pain blocker result is on record as “no notable”. The analgesic pain relief entry in [5] is on record as “moderate”.
For the compound `C=C(C)C1CC=C(C)CC1` (single isomer, unassigned; (+)) [(+) limonene], the “beta wave activity (EEG)” value in data set [6] (all subjects) is “increase relative high beta wave activity”. In data set [6] (men), the “alpha wave activity (EEG)” value is recorded as “no increase in alpha wave activity”; the “beta and other absolute wave activity (EEG)” value is listed as “relative high beta activity increase”. Besides, in [6] (women), the “alpha wave activity (EEG)” value is listed as “increased absolute fast alpha wave activity” and the “beta wave activity (EEG)” value is reported as “decreased relative mid beta wave activity”.
In the case of `C=C1CC/C=C(\C)CC[C@@H]2[C@@H]1CC2(C)C` [beta caryophyllene], the anti depressant result in data set [7] is reported as “moderate”. Moreover, the anti anxiety result in data set [8] is on record as “moderate”. Besides, the sedative entry in data set [1] is reported as “no notable”. Further, in [3], the AChEl result is on record as “no notable”. In data set [4], the antinociceptive pain blocker entry is listed as “no notable”. In [5], the analgesic pain relief entry is reported as “moderate”.
Take `C=CCc1ccc(O)c(OC)c1` [eugenol]: in data set [4], the antinociceptive pain blocker result is recorded as “very strong”.
Take `C=C1C2CCC(C2)C1(C)C` (centres unmarked) [camphene]: the sedative result in [1] is on record as “moderate”. Moreover, in data set [3], the AChEl entry is “no notable”. Besides, the antinociceptive pain blocker entry in data set [4] was “no notable”. The analgesic pain relief result in data set [5] was “no notable”.
With `CC1=CCC2CC1C2(C)C` (stereo not drawn) [alpha pinene], in data set [7], the anti depressant entry was “moderate”. In addition, the “motor stimulation (EPM)” value in [9] is reported as “moderate”. In data set [6] (no gender qualifier), the “alpha wave boost: focus” value is “moderate”. The “beta wave boost: creativity” value in [6] (women only) is “very strong”. Besides, the anti anxiety entry in data set [8] is on record as “moderate”. For the same compound, the sedative entry in data set [1] is “agonistic”. The “GABA A Modulation” value with GABA A is “moderate”. Moreover, in data set [3], the AChEl result is reported as “very strong”. The antinociceptive pain blocker result in data set [4] is recorded as “no notable”. Further, the analgesic pain relief entry in data set [5] was “weak”.
Turning to `C=CC(C)(O)CCC=C(C)CCC=C(C)C` (centres unmarked) [nerolidol], the anti anxiety entry in [8] is listed as “very strong”. The sedative result in [1] is “very strong”. Besides, in [3], the AChEl entry is reported as “no notable”. Besides, the antinociceptive pain blocker entry in data set [4] was “very strong”. Also, in data set [5], the analgesic pain relief entry is given as “moderate”.
`C=C/C(C)=C/CC=C(C)C` [beta ocimene]: the AChEl entry in [3] is “very strong”. Also, the antinociceptive pain blocker entry in [4] was “no notable”. Besides, in data set [5], the analgesic pain relief result is on record as “no notable”.
As to `C=C(C)[C@H]1CC=C(C)CC1` [limonene], in data set [7], the anti depressant result is “moderate”. In data set [6] (women only), the “beta wave boost: creativity” value is “very strong”. Moreover, the AChEl result in data set [3] is “agonistic”. Besides, the antinociceptive pain blocker entry in data set [4] is “no notable”. Further, the analgesic pain relief entry in data set [5] was “moderate”.
As to `CC12CCC(CC1)C(C)(C)O2` [eucalyptol], the AChEl result in data set [3] is “very strong”. Also, the antinociceptive pain blocker entry in [4] was “no notable”.
Take `CC12CCC(C1)C(C)(C)C2O` (centres unmarked) [fenchol]: the sedative entry in data set [1] is on record as “moderate”. Besides, the AChEl result in [3] is given as “no notable”. Also, the antinociceptive pain blocker result in data set [4] is reported as “no notable”. In addition, in [5], the analgesic pain relief result is “no notable”.
Regarding `CC1=CC=C(C(C)C)CC1` [alpha terpinene], the AChEl entry in data set [3] is listed as “very strong”. The antinociceptive pain blocker result in data set [4] is listed as “no notable”.
`C=CC(C)(O)CCC=C(C)C` (centres unmarked) [linalool]: the anti depressant entry in data set [7] is “very strong”. In [8], the anti anxiety result is recorded as “very strong”. Further, the sedative entry in data set [1] was “very strong”. For the same compound, the “GABA A Modulation” value with GABA A is recorded as “very strong”. For the same compound, in data set [3], the AChEl entry was “no notable”. Besides, in [4], the antinociceptive pain blocker result is “very strong”. Further, the analgesic pain relief result in data set [5] is recorded as “moderate”.
Take `CC1=CC[C@H](C(C)C)C=C1` [alpha phellandrene]: the anti depressant result in [7] is recorded as “moderate”. The sedative result in data set [1] is “no notable”. Besides, the AChEl result in data set [3] is “no notable”. Further, the antinociceptive pain blocker entry in data set [4] is listed as “very strong”. For the same compound, in data set [5], the analgesic pain relief entry is listed as “moderate”.
Turning to `C/C1=C\CC/C(C)=C/CC(C)(C)/C=C/C1` [humulene], in [1], the sedative entry was “no notable”. For the same compound, the AChEl entry in data set [3] was “no notable”. Further, in data set [4], the antinociceptive pain blocker entry was “no notable”. Also, the analgesic pain relief result in [5] is “no notable”.
Turning to `CC1=CCC2C(C1)C2(C)C` (centres unmarked) [3 carene], in data set [3], the AChEl result is reported as “very strong”. Also, the antinociceptive pain blocker result in data set [4] is reported as “no notable”. Also, in data set [5], the analgesic pain relief result is recorded as “no notable”.
